According to PubChem BioAssay (NCI):
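Tested at 5 concentrations; 48 h exposure; 96-well plates; endpoints linearly interpolated, else capped at highest concentration. Definition used: TGI = concentration required for complete inhibition of growth.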

Key:
Experiment in all cases: NCI anticancer screen, dose series, 48 h
UACC-257 melanoma = system: UACC-257 melanoma
SK-MEL-28 melanoma = system: SK-MEL-28 melanoma
HCC-2998 colon = system: HCC-2998 colon
LOX IMVI melanoma = system: LOX IMVI melanoma
SNB-75 CNS = system: SNB-75 CNS
ACHN renal = system: ACHN renal
SF-539 CNS = system: SF-539 CNS
IGROV1 ovarian = system: IGROV1 ovarian
RXF 393 renal = system: RXF 393 renal
SK-MEL-5 melanoma = system: SK-MEL-5 melanoma
HS 578T breast = system: HS 578T breast
OVCAR-5 ovarian = system: OVCAR-5 ovarian
A498 renal = system: A498 renal
HCT-15 colon = system: HCT-15 colon
NCI/ADR-RES ovarian = system: NCI/ADR-RES ovarian
NCI-H23 lung = system: NCI-H23 lung
COLO 205 colon = system: COLO 205 colon
HL-60(TB) leukemia = system: HL-60(TB) leukemia
UACC-62 melanoma = system: UACC-62 melanoma
SNB-19 CNS = system: SNB-19 CNS
OVCAR-8 ovarian = system: OVCAR-8 ovarian
SN12C renal = system: SN12C renal
HOP-62 NSCLC = system: HOP-62 NSCLC
U251 CNS = system: U251 CNS
BT-549 breast = system: BT-549 breast
MDA-MB-435 = system: MDA-MB-435
NCI-H460 lung = system: NCI-H460 lung
HCT-116 colon = system: HCT-116 colon
HT29 colon = system: HT29 colon
SK-MEL-2 melanoma = system: SK-MEL-2 melanoma
NCI-H522 lung = system: NCI-H522 lung
SF-268 CNS = system: SF-268 CNS
MCF7 breast = system: MCF7 breast
SK-OV-3 ovarian = system: SK-OV-3 ovarian
HOP-92 NSCLC = system: HOP-92 NSCLC
DU-145 prostate = system: DU-145 prostate
UO-31 renal = system: UO-31 renal
TK-10 renal = system: TK-10 renal
MDA-N = system: MDA-N
PC-3 prostate = system: PC-3 prostate
786-0 renal = system: 786-0 renal
OVCAR-3 ovarian = system: OVCAR-3 ovarian
MALME-3M melanoma = system: MALME-3M melanoma
A549 NSCLC = system: A549 NSCLC
SR leukemia = system: SR leukemia
MOLT-4 leukemia = system: MOLT-4 leukemia
EKVX NSCLC = system: EKVX NSCLC
SF-295 CNS = system: SF-295 CNS
M14 melanoma = system: M14 melanoma
T-47D breast = system: T-47D breast
RPMI-8226 leukemia = system: RPMI-8226 leukemia
KM12 colon = system: KM12 colon
CCRF-CEM leukemia = system: CCRF-CEM leukemia
SW-620 colon = system: SW-620 colon
NCI-H226 lung = system: NCI-H226 lung
MDA-MB-231 breast = system: MDA-MB-231 breast
K-562 leukemia = system: K-562 leukemia
CAKI-1 renal = system: CAKI-1 renal
OVCAR-4 ovarian = system: OVCAR-4 ovarian

Measured: TGI

CCOC(=O)NC(OCCN(C)C)(C(F)(F)F)C(F)(F)F
> 100 µM: UACC-257 melanoma | SK-MEL-28 melanoma | HCC-2998 colon | LOX IMVI melanoma | SNB-75 CNS | ACHN renal | SF-539 CNS | IGROV1 ovarian | RXF 393 renal | SK-MEL-5 melanoma | HS 578T breast | OVCAR-5 ovarian | A498 renal | HCT-15 colon | NCI/ADR-RES ovarian | NCI-H23 lung | COLO 205 colon | HL-60(TB) leukemia | UACC-62 melanoma | SNB-19 CNS | OVCAR-8 ovarian | SN12C renal | HOP-62 NSCLC | U251 CNS | BT-549 breast | MDA-MB-435 | NCI-H460 lung | HCT-116 colon | HT29 colon | SK-MEL-2 melanoma | NCI-H522 lung | SF-268 CNS | MCF7 breast | SK-OV-3 ovarian | HOP-92 NSCLC | DU-145 prostate | UO-31 renal | TK-10 renal | MDA-N | PC-3 prostate | 786-0 renal | OVCAR-3 ovarian | MALME-3M melanoma | A549 NSCLC | SR leukemia | MOLT-4 leukemia | EKVX NSCLC | SF-295 CNS | M14 melanoma | T-47D breast | RPMI-8226 leukemia | KM12 colon | CCRF-CEM leukemia | SW-620 colon | NCI-H226 lung | MDA-MB-231 breast | K-562 leukemia | CAKI-1 renal

O=C(O)C(Cc1ccccc1-c1ccccc1)C(=O)O
> 100 µM: UACC-257 melanoma | SK-MEL-28 melanoma | LOX IMVI melanoma | SNB-75 CNS | ACHN renal | SF-539 CNS | IGROV1 ovarian | RXF 393 renal | SK-MEL-5 melanoma | HS 578T breast | OVCAR-5 ovarian | A498 renal | HCT-15 colon | NCI/ADR-RES ovarian | NCI-H23 lung | COLO 205 colon | UACC-62 melanoma | SNB-19 CNS | OVCAR-8 ovarian | SN12C renal | U251 CNS | BT-549 breast | OVCAR-4 ovarian | MDA-MB-435 | NCI-H460 lung | HCT-116 colon | HT29 colon | SK-MEL-2 melanoma | NCI-H522 lung | SF-268 CNS | MCF7 breast | HOP-92 NSCLC | DU-145 prostate | UO-31 renal | TK-10 renal | MDA-N | PC-3 prostate | 786-0 renal | OVCAR-3 ovarian | MALME-3M melanoma | A549 NSCLC | SR leukemia | MOLT-4 leukemia | EKVX NSCLC | SF-295 CNS | M14 melanoma | T-47D breast | RPMI-8226 leukemia | KM12 colon | SW-620 colon | NCI-H226 lung | MDA-MB-231 breast | K-562 leukemia | CAKI-1 renal
